Assay results taken from ChEMBL document CHEMBL1828525, “Metronidazole acid acyl sulfonamide: a novel class of anticancer agents and potential EGFR tyrosine kinase inhibitors” (Bioorg Med Chem, 2011).
Values after ≈ are worked out from the molar mass of the structure shown.

What was measured:
[1] = biological target: Receptor tyrosine-protein kinase erbB-2 (Homo sapiens, UniProt P04626);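 also: recombinant His6-tagged human HER-2, autophosphorylation inhibition read by DELFIA time-resolved fluorescence after 10 min preincubation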
Chain of Receptor tyrosine-protein kinase erbB-2 (P04626 whole entry): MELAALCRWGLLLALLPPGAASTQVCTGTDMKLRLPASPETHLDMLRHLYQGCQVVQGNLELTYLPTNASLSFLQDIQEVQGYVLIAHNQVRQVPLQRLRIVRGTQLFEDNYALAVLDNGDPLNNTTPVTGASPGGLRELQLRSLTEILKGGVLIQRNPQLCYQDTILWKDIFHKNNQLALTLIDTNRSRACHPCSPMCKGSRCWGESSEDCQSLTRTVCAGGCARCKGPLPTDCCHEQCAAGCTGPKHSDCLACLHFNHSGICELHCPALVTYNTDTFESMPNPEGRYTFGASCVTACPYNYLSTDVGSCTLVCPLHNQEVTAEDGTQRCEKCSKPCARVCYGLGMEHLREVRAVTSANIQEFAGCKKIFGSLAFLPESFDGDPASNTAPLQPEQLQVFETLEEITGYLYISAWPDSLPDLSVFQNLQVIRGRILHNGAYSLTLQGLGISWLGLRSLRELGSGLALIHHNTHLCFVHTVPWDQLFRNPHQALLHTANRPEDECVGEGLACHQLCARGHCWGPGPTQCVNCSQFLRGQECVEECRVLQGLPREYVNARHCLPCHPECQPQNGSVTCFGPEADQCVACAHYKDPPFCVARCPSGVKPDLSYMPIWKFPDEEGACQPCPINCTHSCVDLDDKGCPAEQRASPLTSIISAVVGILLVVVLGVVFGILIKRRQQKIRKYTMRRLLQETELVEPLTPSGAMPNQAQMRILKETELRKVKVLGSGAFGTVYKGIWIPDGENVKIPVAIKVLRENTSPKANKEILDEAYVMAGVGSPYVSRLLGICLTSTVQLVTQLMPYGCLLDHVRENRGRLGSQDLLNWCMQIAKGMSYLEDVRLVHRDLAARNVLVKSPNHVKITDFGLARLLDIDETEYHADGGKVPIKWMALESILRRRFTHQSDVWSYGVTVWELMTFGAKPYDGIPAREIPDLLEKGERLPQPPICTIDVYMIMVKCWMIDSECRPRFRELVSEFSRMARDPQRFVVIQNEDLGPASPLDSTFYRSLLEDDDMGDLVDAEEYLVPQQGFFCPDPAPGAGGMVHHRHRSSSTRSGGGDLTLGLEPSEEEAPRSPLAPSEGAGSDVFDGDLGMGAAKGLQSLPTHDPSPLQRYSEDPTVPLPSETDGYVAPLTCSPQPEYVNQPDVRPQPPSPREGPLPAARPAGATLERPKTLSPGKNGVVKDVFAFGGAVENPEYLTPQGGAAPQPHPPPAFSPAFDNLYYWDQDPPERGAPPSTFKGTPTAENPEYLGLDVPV
Description: Inhibition of human recombinant (His)6-tagged HER-2 autophosphorylation pre-incubated for 10 mins by DELFIA/Time-resolved fluorimetry

[2] = biological target: Epidermal growth factor receptor (Homo sapiens, UniProt P00533);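 also: recombinant His6-tagged EGFR autophosphorylation, read by DELFIA time-resolved fluorimetry after a 10 min preincubation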
Chain of Epidermal growth factor receptor (P00533 whole entry): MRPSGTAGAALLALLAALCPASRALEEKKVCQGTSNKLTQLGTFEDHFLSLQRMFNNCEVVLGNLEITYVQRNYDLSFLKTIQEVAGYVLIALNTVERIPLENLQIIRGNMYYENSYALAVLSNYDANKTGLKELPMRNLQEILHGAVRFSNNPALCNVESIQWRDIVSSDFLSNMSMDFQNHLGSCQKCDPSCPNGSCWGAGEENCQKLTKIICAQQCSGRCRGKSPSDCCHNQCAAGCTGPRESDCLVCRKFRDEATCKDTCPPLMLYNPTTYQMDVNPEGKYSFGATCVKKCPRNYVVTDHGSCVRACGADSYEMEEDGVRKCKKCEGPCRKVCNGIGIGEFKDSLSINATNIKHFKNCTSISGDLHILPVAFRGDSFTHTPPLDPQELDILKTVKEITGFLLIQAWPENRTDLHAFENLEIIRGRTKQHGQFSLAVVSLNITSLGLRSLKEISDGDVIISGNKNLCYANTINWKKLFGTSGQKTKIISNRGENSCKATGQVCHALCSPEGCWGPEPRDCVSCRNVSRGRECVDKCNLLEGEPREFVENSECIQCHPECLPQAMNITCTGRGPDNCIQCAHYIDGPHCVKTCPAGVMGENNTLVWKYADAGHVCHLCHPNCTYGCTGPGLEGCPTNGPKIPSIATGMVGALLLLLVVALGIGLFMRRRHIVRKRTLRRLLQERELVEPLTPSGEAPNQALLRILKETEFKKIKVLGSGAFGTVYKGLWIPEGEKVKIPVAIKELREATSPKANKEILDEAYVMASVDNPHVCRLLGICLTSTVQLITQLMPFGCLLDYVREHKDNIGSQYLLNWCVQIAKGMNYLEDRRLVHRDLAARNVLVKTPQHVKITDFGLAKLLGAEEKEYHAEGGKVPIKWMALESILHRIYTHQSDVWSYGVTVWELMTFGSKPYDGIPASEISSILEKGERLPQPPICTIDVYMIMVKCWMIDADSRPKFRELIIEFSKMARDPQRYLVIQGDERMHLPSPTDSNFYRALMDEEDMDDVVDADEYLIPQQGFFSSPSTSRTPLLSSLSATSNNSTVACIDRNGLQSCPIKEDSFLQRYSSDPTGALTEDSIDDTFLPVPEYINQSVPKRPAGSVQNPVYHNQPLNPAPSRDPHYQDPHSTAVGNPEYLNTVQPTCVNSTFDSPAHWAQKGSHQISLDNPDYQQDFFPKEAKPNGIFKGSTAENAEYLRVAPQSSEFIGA
Description: Inhibition of human recombinant (His)6-tagged EGFR autophosphorylation pre-incubated for 10 mins by DELFIA/Time-resolved fluorimetry

B16-F10 = test: Antiproliferative activity against mouse B16-F10 cells after 48 hrs by MTT assay; assay type: functional, cell-based; conditions: B16-F10, 48 h
A549 = test: Antiproliferative activity against human A549 cells after 48 hrs by MTT assay; assay type: functional, cell-based; conditions: A549, 48 h

SMILES | IC50 [1] [µM] | IC50 [2] [µM] | IC50 (B16-F10) [µg/mL] | IC50 (A549) [µg/mL]
Cc1ccc(S(=O)(=O)NC(=O)Cn2c([N+](=O)[O-])cnc2C)cc1 | 4.76 | 3.43 | 3.55 (≈ 10.5 µM) | 4.38 (≈ 12.9 µM)
Cc1ncc([N+](=O)[O-])n1CC(=O)NS(=O)(=O)c1ccc(F)cc1 | 1.53 | 0.39 | 0.35 (≈ 1.02 µM) | 1.26 (≈ 3.68 µM)
Cc1ncc([N+](=O)[O-])n1CC(=O)NS(=O)(=O)c1ccc(Br)cc1 | 3.59 | 2.17 | 2.37 (≈ 5.88 µM) | 3.03 (≈ 7.51 µM)
O=C(Cc1ccc(F)cc1)NS(=O)(=O)c1ccccc1 | 8.41 | 6.74 | 9.07 (≈ 30.9 µM) | 10.1 (≈ 34.5 µM)
Cc1ccc(S(=O)(=O)NC(=O)Cc2ccc(F)cc2)cc1 | 10.5 | 8.28 | 9.94 (≈ 32.3 µM) | 12 (≈ 39.2 µM)
O=C(Cc1ccc(F)cc1)NS(=O)(=O)c1ccc(F)cc1 | 7.02 | 5.17 | 4.23 (≈ 13.6 µM) | 5.64 (≈ 18.1 µM)
Cc1ccc(S(=O)(=O)NC(=O)Cc2ccc(Cl)cc2)cc1 | 15.6 | 13.7 |  | 
O=C(Cc1ccc(Cl)cc1)NS(=O)(=O)c1ccc(F)cc1 | 11.1 | 9.59 |  | 
O=C(Cc1ccc(Cl)cc1)NS(=O)(=O)c1ccc(Cl)cc1 | 13.3 | 10.3 |  | 
O=C(Cc1ccc(Br)cc1)NS(=O)(=O)c1ccc(F)cc1 | 16.3 | 14.5 |  | 
O=C(Cc1ccc(Br)cc1)NS(=O)(=O)c1ccc(Cl)cc1 | 18.9 | 15.9 |  | 
O=C(Cc1ccc(Br)cc1)NS(=O)(=O)c1ccc(Br)cc1 | 19.8 |  |  | 
COc1ccc(CC(=O)NS(=O)(=O)c2ccccc2)cc1 | 29.1 | 26.2 |  | 
COc1ccc(CC(=O)NS(=O)(=O)c2ccc(C)cc2)cc1 | > 50 | 38.5 |  | 
COc1ccc(CC(=O)NS(=O)(=O)c2ccc(F)cc2)cc1 | 23.4 | 21.8 |  | 
Cc1ccc(S(=O)(=O)NC(=O)Cc2cccc(Br)c2)cc1 | 27.9 | 26.2 |  | 
O=C(Cc1cccc(Br)c1)NS(=O)(=O)c1ccc(F)cc1 | 20.4 | 18.7 |  | 
O=C(Cc1cccc(Br)c1)NS(=O)(=O)c1ccc(Br)cc1 | 27.4 | 24.3 |  | 

Continued by falling IC50 [1], values first:

IC50 [1] [µM] | IC50 [2] [µM] | IC50 (B16-F10) [µg/mL] | IC50 (A549) [µg/mL] | SMILES
37.9 | 32.9 |  |  | COc1ccc(CC(=O)NS(=O)(=O)c2ccc(Cl)cc2)cc1
26.3 | 24.7 |  |  | O=C(Cc1cccc(Br)c1)NS(=O)(=O)c1ccccc1
25 | 24.2 |  |  | COc1ccc(CC(=O)NS(=O)(=O)c2ccc(Br)cc2)cc1
23.5 | 21.3 |  |  | O=C(Cc1cccc(Br)c1)NS(=O)(=O)c1ccc(Cl)cc1
20.3 | 18.4 |  |  | Cc1ccc(S(=O)(=O)NC(=O)Cc2ccc(Br)cc2)cc1
19 | 17.8 |  |  | O=C(Cc1ccc(Br)cc1)NS(=O)(=O)c1ccccc1
13.6 | 11.3 |  |  | O=C(Cc1ccc(Cl)cc1)NS(=O)(=O)c1ccc(Br)cc1
13.1 | 11.9 |  |  | O=C(Cc1ccc(Cl)cc1)NS(=O)(=O)c1ccccc1
8.18 | 6.41 | 8.2 (≈ 22 µM) | 7.94 (≈ 21.3 µM) | O=C(Cc1ccc(F)cc1)NS(=O)(=O)c1ccc(Br)cc1
7.56 | 5.93 | 6.36 (≈ 19.4 µM) | 6.28 (≈ 19.2 µM) | O=C(Cc1ccc(F)cc1)NS(=O)(=O)c1ccc(Cl)cc1
4.21 |  |  |  | Cc1ncc([N+](=O)[O-])n1CC(=O)NS(=O)(=O)c1ccccc1
3.41 | 1.51 | 0.92 (≈ 2.56 µM) | 2.47 (≈ 6.88 µM) | Cc1ncc([N+](=O)[O-])n1CC(=O)NS(=O)(=O)c1ccc(Cl)cc1
